From patent US10376510B2, “2,4- or 4,6-diaminopyrimidine compounds as IDH2 mutants inhibitors for the treatment of cancer” (AGIOS PHARMACEUTICALS, INC., priority 2013, dated 2019)

Columns and labels:
[1] = tested on: U87MG pLVX-IDH2 R140Q-neo cells; assay: U87MG pLVX-IDH2 R140Q-neo cell based assay (2-HG in media by LC-MS); set-up: key to Cell R140Q: values indicated as “A” represent an IC50 of less than 50 nM; values indicated as “B” represent an IC50 of between 50 nM and 100 nM; values indicated as “C” represent an IC50 of greater than 100 nM; values indicated as “D” represent that the compound was either inactive or not tested in that particular assay; conditions: 2-HG at 48 hours, class symbols; for IC50: Homo sapiens, U-87 MG
Protocol: U87MG pLVX-IDH2 R140Q-neo Cell Based Assay.
U87MG pLVX-IDH2 R140Q-neo cells are grown in T125 flasks in DMEM containing 10% FBS, 1× penicillin/streptomycin and 500 μg/mL G418. They are harvested by trypsin and seeded into 96 well white bottom plates at a density of 5000 cell/well in 100 μl/well in DMEM with 10% FBS. No cells are plated in columns 1 and 12. Cells are incubated overnight at 37° C. in 5% CO2. The next day compounds are made up at 2x concentration and 100 ul are added to each cell well. The final concentration of DMSO is 0.2% and the DMSO control wells are plated in row G. The plates are then placed in the incubator for 48 hours. At 48 hours, 100 ul of media is removed from each well and analyzed by LC-MS for 2-HG concentrations. The cell plate is placed back in the incubator for another 24 hours. At 72 hours post compound addition, 10 mL/plate of Promega Cell Titer Glo reagent is thawed and mixed. The cell plate is removed from the incubator and allowed to equilibrate to room temperature. Then 100 ul of reagent is added to each well of media. The cell plate is then placed on an orbital shaker for 10 minutes and then allowed to sit at room temperature for 20 minutes. The plate is then read for luminescence with an integration time of 500 ms to determine compound effects on growth inhibition.

IDH2 R140Q = biological target: T1, IDH2 R140Q (Homo sapiens, UniProt P48735, R140Q); assay: IDH2 R140Q enzymatic assay (NADPH cofactor depletion, diaphorase/resazurin readout); format: biochemical; set-up: key to Enz R140Q: values indicated as “A” represent an IC50 of less than 50 nM; values indicated as “B” represent an IC50 of between 50 nM and 100 nM; values indicated as “C” represent an IC50 of greater than 100 nM; values indicated as “D” represent that the compound was either inactive or not tested in that particular assay; conditions: IDH2 R140Q enzyme, 16 hours preincubation, class symbols; for IC50: read-out: Enz R140Q
T1 sequence (P48735 40-452 R140Q): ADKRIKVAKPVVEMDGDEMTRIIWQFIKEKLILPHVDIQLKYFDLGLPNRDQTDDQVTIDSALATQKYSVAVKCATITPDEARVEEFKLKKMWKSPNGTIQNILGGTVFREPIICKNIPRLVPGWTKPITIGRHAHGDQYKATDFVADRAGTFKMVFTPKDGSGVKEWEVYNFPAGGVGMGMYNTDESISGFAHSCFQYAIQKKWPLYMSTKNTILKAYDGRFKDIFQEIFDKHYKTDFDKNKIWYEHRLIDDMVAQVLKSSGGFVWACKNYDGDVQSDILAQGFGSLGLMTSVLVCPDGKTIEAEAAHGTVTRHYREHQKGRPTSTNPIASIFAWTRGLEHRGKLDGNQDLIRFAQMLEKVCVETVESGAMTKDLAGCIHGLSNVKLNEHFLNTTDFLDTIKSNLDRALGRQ
Protocol: Compounds are assayed for IDH2 R172K inhibitory activity through a cofactor depletion assay. […] The reaction is terminated by the addition of a second enzyme, diaphorase, and a corresponding substrate, resazurin. Diaphorase reduces resazurin to the highly fluorescent resorufin with the concomitant oxidation of NADPH to NADP, both halting the IDH2 reaction by depleting the available cofactor pool and facilitating quantitation of the amount of cofactor remaining after a specific time period through quantitative production of an easily detected fluorophore.
Specifically, into each of 12 wells of a 384-well plate, 1 μl of 100× compound dilution series is placed, followed by the addition of 40 μl of buffer (50 mM potassium phosphate (K2HPO4), pH 7.5; 150 mM NaCl; 10 mM MgCl2, 10% glycerol, 0.05% bovine serum albumin, 2 mM beta-mercaptoethanol) containing 1.25 μg/ml IDH2 R172K. The test compound is then incubated for 16 hours at room temperature with the enzyme; before starting the IDH2 reaction with the addition of 10 μl of substrate mix containing 50 μM NADPH and 6.3 mM α-KG in the buffer described above. After a further one hour of incubation at room temperature, the reaction is halted and the remaining NADPH measured through conversion of resazurin to resorufin by the addition of 25 μl Stop Mix (36 μg/ml diaphorase enzyme and 60 μM resazurin; in buffer). After one minute of incubation the plate is read on a plate reader at Ex544/Em590.
For determination of the inhibitory potency of compounds against IDH2 R140Q in an assay format similar to the above, a similar procedure is performed, except that the final testing concentration is 0.25 μg/ml IDH2 R140Q protein, 4 μM NADPH and 1.6 mM α-KG.
For determination of the inhibitory potency of compounds against IDH2 R140Q in a high throughput screening format, a similar procedure is performed, except that 0.25 μg/ml IDH2 R140Q protein was utilized in the preincubation step, and the reaction is started with the addition of 4 μM NADPH and 8 μM α-KG.

SMILES	IC50 [1] [µM]	IC50 (IDH2 R140Q) [µM]	Enz R140Q (IDH2 R140Q)	Cell R140Q [1]
CC(C)Nc1cc(Nc2ccccc2)nc(-c2ccccc2)n1 [Compound 700]	> 0.1	0.05 to 0.1		
CC(C)CC(=O)Nc1cc(Nc2ccccc2)nc(-c2ccccc2)n1 [Compound 701]	> 0.1		D	
CC(C)OC(=O)Nc1cc(Nc2ccccc2)nc(-c2ccccc2)n1 [Compound 703]	> 0.1		D	
CC(C)(O)CNc1cc(Nc2ccccn2)nc(-c2cccc(C(F)(F)F)n2)n1 [Compound 707]	> 0.1	> 0.1		
CC(C)(O)CNc1cc(Nc2ccnc(C(F)(F)F)c2)nc(-c2cccc(C(F)(F)F)n2)n1 [Compound 709]	> 0.1	> 0.1		
CC(C)(C)Nc1cc(Nc2cc(C(F)(F)F)ccn2)nc(-c2cccc(C(F)(F)F)n2)n1 [Compound 716]	< 0.05	0.05 to 0.1		
N#CC1(c2ccnc(Nc3cc(NCC4CC4)nc(-c4cccc(C(F)(F)F)n4)n3)c2)CC1 [Compound 719]	< 0.05	< 0.05		
CC(C)Nc1cc(Nc2cc(C3(C#N)CC3)ccn2)nc(-c2cccc(C(F)(F)F)n2)n1 [Compound 720]	< 0.05	< 0.05		
CC(C)(C)Nc1cc(Nc2cc(C3(C#N)CC3)ccn2)nc(-c2cccc(C(F)(F)F)n2)n1 [Compound 721]	< 0.05	0.05 to 0.1		
Nc1cc(Nc2cc(C(F)(F)F)ccn2)nc(-c2cccc(C(F)(F)F)n2)n1 [Compound 722]		> 0.1		D
CC(C)(C)Nc1cc(Nc2cc(C(F)(F)F)ncn2)nc(-c2cccc(C(F)(F)F)n2)n1 [Compound 723]		0.05 to 0.1		D
COc1ccc(CNc2cc(Nc3cc(C(F)(F)F)ncn3)nc(-c3cccc(C(F)(F)F)n3)n2)cc1 [Compound 724]		< 0.05		D
CC(C)(CO)Nc1cc(Nc2cc(C(F)(F)F)ncn2)nc(-c2cccc(C(F)(F)F)n2)n1 [Compound 725]		0.05 to 0.1		D
Nc1cc(Nc2cc(C(F)(F)F)ncn2)nc(-c2cccc(C(F)(F)F)n2)n1 [Compound 726]		> 0.1		D
COc1ccc(CNc2cc(Nc3ccnc(C(F)(F)F)c3)nc(-c3cccc(C(F)(F)F)n3)n2)cc1 [Compound 727]		0.05 to 0.1		D
Nc1cc(Nc2ccnc(C(F)(F)F)c2)nc(-c2cccc(C(F)(F)F)n2)n1 [Compound 728]			D	D
CC(C)Nc1nc(Nc2ccccc2)cc(-c2ccccc2)n1 [Compound 729]			D	D
CC(C)Nc1cc(-c2ccccc2)nc(Nc2ccccc2)n1 [Compound 730]	0.05 to 0.1	0.05 to 0.1		
O=C(Cc1ccccc1)Nc1nc(Nc2ccccc2)cc(-c2ccccc2)n1 [Compound 734]	> 0.1		D	
CC(C)CC(=O)Nc1cc(-c2ccccc2)nc(Nc2ccccc2)n1 [Compound 735]	> 0.1	> 0.1		
CC(C)C(=O)Nc1cc(-c2ccccc2)nc(Nc2ccccc2)n1 [Compound 736]	> 0.1		D	
CC(C)OC(=O)Nc1cc(-c2ccccc2)nc(Nc2ccccc2)n1 [Compound 737]			D	D
CC(C)Nc1nc(Nc2ccnc(C(F)(F)F)c2)cc(-c2cccc(C(F)(F)F)n2)n1 [Compound 738]	0.05 to 0.1	< 0.05		
CC(C)Nc1cc(-c2cccc(C(F)(F)F)n2)nc(Nc2ccnc(C(F)(F)F)c2)n1 [Compound 739]	> 0.1	< 0.05		

The next lines start with results.

IC50 [1] [µM]	IC50 (IDH2 R140Q) [µM]	Enz R140Q (IDH2 R140Q)	SMILES	Cell R140Q [1]
> 0.1	< 0.05		CC(C)C(=O)Nc1cc(Nc2ccccc2)nc(-c2ccccc2)n1 [Compound 702]	
< 0.05	< 0.05		CC(C)Nc1cc(Nc2ccccn2)nc(-c2cccc(C(F)(F)F)n2)n1 [Compound 704]	
< 0.05	< 0.05		CC(C)Nc1cc(Nc2cc(Cl)ccn2)nc(-c2cccc(C(F)(F)F)n2)n1 [Compound 705]	
< 0.05	< 0.05		CC(C)Nc1cc(Nc2ccnc(C(F)(F)F)c2)nc(-c2cccc(C(F)(F)F)n2)n1 [Compound 706]	
0.05 to 0.1	< 0.05		CC(C)Nc1cc(Nc2ccccc2)nc(-c2cccc(C(F)(F)F)n2)n1 [Compound 708]	
< 0.05	< 0.05		CC(C)Nc1cc(Nc2cccc(Cl)n2)nc(-c2cccc(C(F)(F)F)n2)n1 [Compound 710]	
< 0.05	< 0.05		CC(C)Nc1cc(Nc2cc(C(F)(F)F)ccn2)nc(-c2cccc(C(F)(F)F)n2)n1 [Compound 711]	
< 0.05	< 0.05		CC(C)Nc1cc(Nc2cc(C#N)ccn2)nc(-c2cccc(C(F)(F)F)n2)n1 [Compound 712]	
< 0.05	< 0.05		CC(C)Nc1cc(Nc2cc(C(C)(F)F)ccn2)nc(-c2cccc(C(F)(F)F)n2)n1 [Compound 713]	
< 0.05	< 0.05		CC(C)Nc1cc(Nc2cc(C(F)F)ccn2)nc(-c2cccc(C(F)(F)F)n2)n1 [Compound 714]	
< 0.05	< 0.05		FC(F)(F)c1ccnc(Nc2cc(NCC3CC3)nc(-c3cccc(C(F)(F)F)n3)n2)c1 [Compound 715]	
< 0.05	< 0.05		CC(C)Nc1cc(Nc2cc(C(F)(F)F)ncn2)nc(-c2cccc(C(F)(F)F)n2)n1 [Compound 717]	
< 0.05	< 0.05		CC(C)(O)CNc1cc(Nc2cc(C(F)(F)F)ccn2)nc(-c2cccc(C(F)(F)F)n2)n1 [Compound 718]	
